Counter-ions that a name gives are not always drawn.
Legend:
Meth A sarcoma cells = assay: Meth A sarcoma implanted in CBF1 mice, tumor growth and survival; format: in vivo; conditions: p.o., 50 μg, 28 days; 7.3×10^6 Meth A sarcoma cells implanted; no control animals survived
Source text: Meth A fibrosarcoma cells were induced in BALB/C mice by administering methylcholanthrene according to the procedure of Old, et al. (L. J. Old, E. A. Boyse, D. A. Clarke, and E. Carswell, Ann. N.Y. Acad. Sci., 101, 80 (1962). These tumor cells were harvested from the peritoneal cavity 10 to 12 days after administration of methylcholanthrene. Ten CBF1 mice of 10-12 week age were each implanted with 7.3×10^6 Meth A sarcoma cells to serve as control. A second group of ten CBF1 mice were each implanted with 7.3×10^6 Meth A sarcoma cells and on day one after implant each mouse was treated p.o. with 5-50 μg of the test compound per day for a total of twenty or twenty-seven days. Tumor growth and survivors were assayed on days 7, 14, 21 and 28 after tumor implantation. Under these conditions, none of the control group animals survived, whereas 5 out of 10 animals which were administered 50 μg of the compound of Example 2 for 28 days survived and 8 out of 10 animals which were administered 50 μg of the compound of Example 5 for 28 days survived.

Meth A fibrosarcoma = assay: Tumor Cell Cytotoxicity test (TCC test), Meth A fibrosarcoma; format: cell-based; conditions: 5 μg, 72 hours; 3H-thymidine uptake
Protocol: (§1) As indicated above, all of the compounds of formula I are anti-tumor agents and are, therefore, useful in inhibiting the growth of various lymphomas, sarcomas, myelomas and leukemia cell lines.
(§2) In flat bottom microtiter plates (Nunc Roskilde, Denmark) were placed Abelson 8.1 lymphoma, YAC, L1210, P815, Meth A fibrosarcoma or fresh human neuroblastoma tumor cells in DMEM+10% fetal calf serum and the tumor cell-containing plates were incubated with 1,3 and 5 μg of the test compound for a period of 6 to 72 hours. The number of tumor cells present in the Abelson 8.1, YAC, L1210 and P815 assays was determined by measuring the alkaline phosphatase as follows:
(§3) The number of tumor cells present in the Meth A fibrosarcoma and human neuroblastoma assays was measured by ^3 H-thymidine uptake as follows:
(§4) After 72 hours, the cells are thoroughly washed, and each well treated with ca. 0.1 μC ^3 H-thymidine. After 4-6 hours, the cells are collected using a commercial cell harvester, and the radioactivity in the […] is measured in a scintillation counter.
(§5) At a concentration of 5 μg and an incubation period of 72 hours, the following results were obtained: […]

[1] = tested on: human neuroblastoma tumor cells; assay: Tumor Cell Cytotoxicity test (TCC test), fresh human neuroblastoma tumor cells; format: cell-based; conditions: 5 μg, 72 hours; 3H-thymidine uptake
Protocol: as §1, §2, §3, §4, §5

Abelson 8.1 tumor cells = assay: Influence on Cytotoxicity of ET-18-OCH3 test; format: cell-based; conditions: 5 μg test compound, 72 hours; mouse bone marrow cell macrophages preincubated with 10 μg ET-18-OCH3 for 24 hours; ET-18-OCH3 alone set at 100%
Protocol: Bone marrow cell macrophages (10^5 /well) obtained from [BALB/CX57/BL6 ]Fl mice were incubated with 10 μg of 1-octadecyl-2-methoxy-3-phosphoryl choline (ET-18-OCH3) for 24 hours in flat bottom microtiter plates (Nunc Roskilde, Denmark), after which time they are centrifuged and washed once. Abelson 8.1 tumor cells in DMEM+10% fetal calf serum and 1,3 and 5 μg of the test compound were then added to the plates. With the cytotoxicity of ET-18-OCH3 (10 μg) alone set at 100%, the inhibition or enhancement of the cytotoxic effect, as measured by an alkaline phosphatase assay, was determined and values recorded after 72 hours for 1, 3 and 5 .eta.g of the test substance. At a concentration of 5 μg, the following results were obtained: […]

Abelson 8.1 lymphoma = assay: Tumor Cell Cytotoxicity test (TCC test), Abelson 8.1 lymphoma; format: cell-based; conditions: 5 μg, 72 hours; alkaline phosphatase assay
Protocol: as §1, §2
(§6) The tumor cell plates were centrifuged (500×g) for ten minutes and the supernatant flicked off. Without further washing, 100 μl of buffer containing 20 μl of diethanolamine, 2 μM of MgCl2.6H2 O, 2.5 μM of p-nitrophenylphosphate and 10 mg Triton X-100 were added. The samples were incubated for 60 minutes at room temperature and the enzymatic reaction was terminated by the addition of 100 μl of 0.5N NaOH. The absorbance was then measured at 405 nm using a Titertek Multiskan apparatus.
as §5

YAC = assay: Tumor Cell Cytotoxicity test (TCC test), YAC; format: cell-based; conditions: 5 μg, 72 hours; alkaline phosphatase assay
Protocol: as §1, §2, §6, §5

P815 = assay: Tumor Cell Cytotoxicity test (TCC test), P815; format: cell-based; conditions: 5 μg, 72 hours; alkaline phosphatase assay
Protocol: as §1, §2, §6, §5

L1210 = assay: Tumor Cell Cytotoxicity test (TCC test), L1210; format: cell-based; conditions: 5 μg, 72 hours; alkaline phosphatase assay
Protocol: as §1, §2, §6, §5

Compound: CCCCCCCCCCCCCCCCCCC1(COP(=O)([O-])OCC[N+](C)(C)C)CCC(=O)O1 (stereo not shown) [Example 2, 2-[hydroxy(tetrahydro)-2-(octadecyl-5-oxo-2-furanyl)methoxyphosphinyloxy]-N,N,N-trimethyl-ethanaminium hydroxide, inner salt-4-oxide]
- animals survived (Meth A sarcoma cells): 5 out of 10
- % Inhibition Meth A (Meth A fibrosarcoma): 98%
- % Inhibition neuro. [1]: 59%
- % Enhancement (of the cytotoxic effect of ET-18-OCH3) (Abelson 8.1 tumor cells): 99.5%
- % Inhibition Abel. (Abelson 8.1 lymphoma): 97%
- % Inhibition YAC (YAC): 71%
- % Inhibition P815 (P815): 84%
- % Inhibition L1210 (L1210): 69%

Compound: CCCCCCCCCCCCCCCCCCOCC1(COP(=O)([O-])OCC[N+](C)(C)C)CCCO1 (stereo not shown) [Example 5, 2-[(2-octadecyloxymethyltetrahydro-2-furanylmethoxy)-hydroxyphoshphinyloxyl]-N,N,N-trimethylethanaminium hydroxide inner salt-4-oxide]
- animals survived (Meth A sarcoma cells): 8 out of 10
- % Enhancement (of the cytotoxic effect of ET-18-OCH3) (Abelson 8.1 tumor cells): > 90%
- % Inhibition Abel. (Abelson 8.1 lymphoma): 98%
- % Inhibition YAC (YAC): 96%

Compound: CCCCCCCCCCCCCCCCCCC1(COP(=O)([O-])OCC[N+](C)(C)C)COC(=O)C1 (stereo not shown) [Example 6, 2-[hydroxy(tetrahydro)-3-(octadecyl-5-oxo-3-furanyl)methoxyphosphinyloxy]-N,N,N-trimethyl ethanaminium hydroxide, inner salt-4-oxide]
- % Enhancement (of the cytotoxic effect of ET-18-OCH3) (Abelson 8.1 tumor cells): 90%
- % Inhibition Abel. (Abelson 8.1 lymphoma): 50-70%

Compound: CCCCCCCCCCCCCCCCCCC1(COP(=O)([O-])OCC[N+](C)(C)C)CCOC1 (stereo not shown) [Example 7, 2-[(3-octadecyltetrahydro-3-furanylmethoxy)-hydroxyphosphinyloxy]-N,N,N-trimethyl ethanaminium hydroxide, inner salt-4-oxide]
- % Enhancement (of the cytotoxic effect of ET-18-OCH3) (Abelson 8.1 tumor cells): 90%
- % Inhibition Abel. (Abelson 8.1 lymphoma): 70-90%

Source: patent publication US4673672A, “Substituted-[hydroxy(tetrahydro)-5-oxo-(2- and 3-furanyl or 2-thienyl)alkoxyphosphinyloxy]-alkanaminium hydroxide, inner salt oxides” (Sandoz Pharmaceuticals Corp., priority 1986, dated 1987)
